Measurements published in patent US20050209157A1, “Short bioactive peptides and methods for their use” (priority 2001, published 2005).
Where two headings read alike, the source gives them in different places. No end group written: not given here.

Legend:
[1] = Solubility of peptides in sheep serum; assay type: physicochemical
[2] = in vitro; details: human, WI38 normal lung fibroblast cells
[3] = tested on: HeLaS3; assay: Anti-cancer assay, MTT, LD50; assay type: cell-based; details: 24 hours with peptide, cervical carcinoma
From the text: (§1) Numbers are LD50 values (μg/mL).

[4] = tested on: SW480; assay: Anti-cancer assay, MTT, LD50; assay type: cell-based; details: SW480 colon adenocarcinoma line, 24 hours with peptide
From the text: as §1

[5] = tested on: PC3; assay: Anti-cancer assay, MTT, LD50; assay type: cell-based; details: 24 hours with peptide, prostate adenocarcinoma
From the text: as §1

[6] = tested on: MCF7; assay: Anti-cancer assay, MTT, LD50; assay type: cell-based; details: for LD50 MCF7: MCF7 breast adenocarcinoma line, MTT, 24 hours with peptide
From the text: as §1

[7] = tested on: H1299; assay: Anti-cancer assay, MTT, LD50; assay type: cell-based; details: 24 hours with peptide, lung large cell carcinoma
From the text: as §1

[8] = tested on: BMKC; assay: Anti-cancer assay, MTT, LD50; assay type: cell-based; details: BMKC cloned melanoma line, 24 hours with peptide
From the text: as §1

[9] = tested on: Pseudomonas aeruginosa ATCC 9027; assay: Antimicrobial assay I, MIC by OD measurement; assay type: cell-based; details: 37° C. for 24 hours, absorbance 620 nm
[10] = tested on: Staphylococcus aureus ATCC 6538; assay: Antimicrobial assay I, MIC by OD measurement; assay type: cell-based; details: 37° C. for 24 hours, absorbance 620 nm
[11] = tested on: P. aeruginosa H374; assay type: cell-based, Pseudomonas aeruginosa; details: for MIC Cm-comb.: MIC of chloramphenicol with peptide at ¼ MIC; for MIC Nal-comb.: MIC of nalidixic acid with peptide at ¼ MIC; for FIC Index: 0.5 or less = synergy
Summary of the method: (§2)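 Synergy against efflux-mutant strains: two-fold dilutions of nalidixic acid or chloramphenicol tested with peptide held at ¼ of its MIC.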

[12] = tested on: P. aeruginosa; assay type: cell-based, Pseudomonas aeruginosa; details: P. aeruginosa H744; MIC of nalidixic acid with peptide at ¼ MIC
Summary of the method: as §2

[13] = tested on: P. aeruginosa H774; assay type: cell-based, Pseudomonas aeruginosa; details: P. aeruginosa H744; nalidixic acid + peptide at ¼ MIC; 0.5 or less = synergy
Summary of the method: as §2

[14] = tested on: yeast (Saccharomyces cerevisiae); assay: Antimicrobial assay I, yeast assay in RPMI 1640; assay type: cell-based; details: RPMI 1640 media
[15] = in vitro; assay type: cell-based, human; details: human, human red blood cells
[16] = tested on: Pseudomonas aeruginosa; assay: Serum inactivation of peptides, serum MIC; assay type: cell-based; details: for MIC 30 min treatment: sheep serum 37° C. 30 minutes; for MIC 2 hr treatment: sheep serum 37° C. 2 hours
Description: Subsequently, the serum MICs against Pseudomonas aeruginosa were conducted to determine extent of serum inactivation of the peptides.

[17] = tested on: WI38; details: MTT, 24 hours with peptide; normal fibroblast line
[18] = Leukocyte (WBC) inhibition, toxicity LD50; assay type: cell-based, human; details: male, human, human leukocytes (buffy coat cells, mostly PBMCs); Table 41, lower part
Description: In vitro viability of human leukocyte cells in the presence of different peptides at different concentrations was determined by an Alamar Blue protocol. Alamar Blue (Promega, Madison, Wis.) is an indicator dye, formulated to measure quantitatively the proliferation and cytotoxicity of the cells. The dye consists of an oxidation-reduction (redox) indicator that yields a calorimetric change and a fluorescent signal in response to cellular metabolic activity.
Assay protocol: Blood from a human was drawn and centrifuged at 1500 rpm for 15 minutes at room temperature. The buffy coat cells at the plasma-red blood cell interface were aspirated. Buffy coat cells (mainly lymphocyte cells) were then transferred into 15 ml centrifuge tubes containing 5 ml of RPMI-1640 medium+10% Fetal Bovine Serum (Gibco, Grand Island, N.Y.). Additional medium was added to the tubes to bring the volume up to 10 ml. The buffy coat suspension was then carefully layered on 5 ml of Histopaque (Sigma Chemical Co., St. Louis, Mo.) and centrifuged at 1500 rpm for 30 minutes at room temperature. The interface which is mostly PBMCs (peripheral mononuclear cells) was aspirated and transferred to a 15 ml conical centrifuge tube and, resuspended in 2 ml cold RPMI-1640 and brought up to 15 ml with cold RPMI-1640 medium. Cells were centrifuged at 1500 rpm for 10 minutes. The supernatant was then aspirated and discarded. The cell pellet was re-suspended in 1 ml of cold RPMI 1640 and brought up to 15 ml with RPMI medium. This step was repeated twice, except that in the last step, the cells were resuspended with 1 ml of cold RPMI-1640 medium and cell counts were performed with a hemocytometer according to the Sigma cell culture catalogue.
Pokewood mitogen was used as a control along with positive and negative controls. Negative control cells were killed with 70% methanol. Positive (+) control cells were incubated in RPMI medium (untreated). […] of AlamarBlue was added to the cells, and readings were taken after 24 hours, 48 hours, 72 hours, and 96 hours using a fluorimeter (excitation 544/transmission 590 nm).
In choosing a peptide for possible treatment of a given indication it is important to match the therapeutic activity and specificity of the peptide with its possible toxic properties.
The protocols for WBC and WI38 stimulation have been discussed above. The RBC protocol follows Table 24.

[19] = tested on: MCF7 line of breast cancer cells
[20] = Synergy of Shiva-1 and lysozyme, percent viability; assay type: cell-based, Staphylococcus intermedius
Description: (§3) The percent viability of gram positive S. intermedius 19930, S. intermedius 20034, and S. aureus was determined relative to blank controls.

[21] = Synergy of Shiva-1 and lysozyme, percent viability; assay type: cell-based, Pseudomonas aeruginosa; details: Pseudomonas aeruginosa
Description: The percent viability of Pseudomonas aeruginosa was determined relative to blank controls.

[22] = Synergy of Shiva-1 and lysozyme, percent viability; assay type: cell-based, Staphylococcus aureus; details: S. aureus
Description: as §3

[23] = LD50 WI38, WI38 normal lung fibroblast line, MTT, 24 hours with peptide
[24] = chloramphenicol + peptide at ¼ MIC
[25] = nalidixic acid + peptide at ¼ MIC, FIC=0.25+MIC comb/MIC alone
[26] = pH 7, hemolytic assay, concentration at 50% hemolysis, 1 hour at 37° C., read-out: LD50

KWKLFKKKTKLFKKFAKKLAKKL-OH [P81]
Solubility ([1]; sheep serum, […], 70% serum): Precipitated
CC50 at 24 h [2, 23]: 8 µg/mL
HeLaS3 LD50 [3]: 19 µg/mL
LD50 SW480 [4]: 13 µg/mL
PC3 LD50 [5]: 170 µg/mL
LD50 MCF7 [6]: 63 µg/mL
H1299 LD50 [7]: 22 µg/mL
LD50 BMKC [8]: 12 µg/mL
paerug9027 (MIC) [9]: > (> indicates greater than 200 μg/mL)
staph6538 (MIC) [10]: 10 µg/mL
MIC Cm-comb. [11]: 16 µg/mL
MIC Nal-comb. [11]: 5000 µg/mL
FIC Index [11, 24]: 1.25
FIC Index [11, 25]: 1.25
MIC Nal-comb. [12]: 624 µg/mL
FIC Index [13]: 1.25
yeast (MIC or MFC) [14]: > (> indicates greater than 200 μg/mL)
HC50 at 1 h [15, 26]: 8 µg/mL
MIC 30 min treatment ([16]; first of two columns): 20 µg/mL
MIC 30 min treatment ([16]; second of two columns): 20 µg/mL
MIC 2 hr treatment ([16]; first of two columns): 20 µg/mL
MIC 2 hr treatment ([16]; second of two columns): 20 µg/mL
WI38 LD50 [17]: 8 µg/mL

FALALKALKKLLKKLKKLAKKAL-NH2 [P24]
Solubility ([1]; sheep serum, […], 70% serum): Precipitated
CC50 at 24 h [2, 23]: 55 µg/mL
HeLaS3 LD50 [3]: 145 µg/mL
LD50 SW480 [4]: 38 µg/mL
PC3 LD50 [5]: 38 µg/mL
LD50 MCF7 [6]: 26 µg/mL
H1299 LD50 [7]: 72 µg/mL
LD50 BMKC [8]: 85 µg/mL
MIC Cm-comb. [11]: 16 µg/mL
MIC Nal-comb. [11]: 5000 µg/mL
FIC Index [11, 24]: 1.25
FIC Index [11, 25]: 1.25
MIC Nal-comb. [12]: 624 µg/mL
FIC Index [13]: 1.25
HC50 at 1 h [15, 26]: 10 µg/mL
MIC 30 min treatment ([16]; first of two columns): 40 µg/mL
MIC 30 min treatment ([16]; second of two columns): 20 µg/mL
MIC 2 hr treatment ([16]; first of two columns): 20 µg/mL
MIC 2 hr treatment ([16]; second of two columns): 20 µg/mL
WI38 LD50 [17]: 55 µg/mL

KLAKKLAKLAKLAKAL-OH [121 (160)]
CC50 at 24 h ([2]; WI38 LD50, Table 41, lower part): 700 µg/mL
MCF7 LD50 ([6]; Table 41, lower part): 240 µg/mL
CC50 [18]: 900 µg/mL
MCF7 LD50 ([19]; agent alone): 240 µg/mL
Active agent LD50 on MCF7 cells: Total conc. ([19]; peptide plus tamoxifen concentration at LD50): 14.7 µg/mL
Active agent LD50 on MCF7 cells: Peptide conc. ([19]; peptide with tamoxifen, peptide concentration at LD50): 11 µg/mL
Active agent LD50 on MCF7 cells: Tamox. conc. ([19]; tamoxifen concentration at LD50 (peptide with tamoxifen; tamoxifen alone in its own line)): 3.7 µg/mL
HC50 at 1 h ([15]; pH 7, Table 41, lower part, read-out: RBC LD50): > 1000 µg/mL

MPRWRLFRRIDRVGKQIKQGILRAGPAIALVGDARAVG [Shiva-1]
viability at 0.01 µM ([20]; S. intermedius 19930): 100%
viability at 0.1 µM ([20]; S. intermedius 19930): 81.8%
viability at 0.5 µM ([20]; S. intermedius 19930): 65%
viability at 1 µM ([20]; S. intermedius 19930): 42.1%
viability at 5 µM ([20]; S. intermedius 19930): 35.2%
viability at 10 µM ([20]; S. intermedius 19930): 1.2%
viability at 50 µM ([20]; S. intermedius 19930): 0%
viability at 0.01 µM ([20]; S. intermedius 20034): 100%
viability at 0.5 µM ([20]; S. intermedius 20034): 80%
viability at 5 µM ([20]; S. intermedius 20034): 4.1%
viability at 50 µM ([20]; S. intermedius 20034): 0%
viability at 0.01 µM [21]: 100%
viability at 0.1 µM [21]: 69.6%
viability at 1 µM [21]: 37.9%
viability at 5 µM [21]: 1.5%
viability at 25 µM [21]: 0%
viability at 0.01 µM [22]: 100%
viability at 0.1 µM [22]: 100%
viability at 0.5 µM [22]: 50.1%
viability at 1 µM [22]: 24.4%
viability at 5 µM [22]: 15.9%
viability at 10 µM [22]: 4.5%
viability at 50 µM [22]: 1.6%

VALALKALKKALKKLKKALKKAL-OH [P508]
Solubility ([1]; sheep serum, […], 70% serum): Soluble
Solubility ([1]; sheep, 70% sheep serum): ≥ 1280 µg/mL
MIC Cm-comb. [11]: 8 µg/mL
MIC Nal-comb. [11]: 5000 µg/mL
FIC Index [11, 24]: 0.75
FIC Index [11, 25]: 1.25
HC50 at 1 h [15, 26]: 70 µg/mL
MIC 30 min treatment ([16]; first of two columns): 40 µg/mL
MIC 30 min treatment ([16]; second of two columns): 20 µg/mL
MIC 2 hr treatment ([16]; first of two columns): 40 µg/mL
MIC 2 hr treatment ([16]; second of two columns): 20 µg/mL
change of activity by exposure to serum (serum MIC against Pseudomonas aeruginosa) ([16]; sheep serum, […], 37° C. for 30 minutes or 2 hours): only modestly decreased
